Measured values from article PMC8831444 (Cancer Discovery, 2021).
Like-named read-outs stand apart in the source and are kept apart here. One block for each compound: values may come before it.

Experiments:
Type in all cases: cell-based
CDK4 [1] = biological target: T1, CDK4 (Homo sapiens, UniProt P11802); assay: IP-kinase assay
Target sequence in this assay (P11802 2-303): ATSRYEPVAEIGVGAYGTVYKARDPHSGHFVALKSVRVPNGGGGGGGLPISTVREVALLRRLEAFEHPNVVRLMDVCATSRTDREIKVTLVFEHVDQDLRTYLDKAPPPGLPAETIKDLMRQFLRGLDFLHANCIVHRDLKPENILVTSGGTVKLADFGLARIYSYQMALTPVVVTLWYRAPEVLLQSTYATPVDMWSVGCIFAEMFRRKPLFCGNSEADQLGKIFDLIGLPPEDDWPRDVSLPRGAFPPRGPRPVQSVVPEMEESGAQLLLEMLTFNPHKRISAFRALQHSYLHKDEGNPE

CDK6 [2] = biological target: T2, CDK6 (Homo sapiens, UniProt Q00534); assay: palbociclib-based degrader
Target sequence in this assay (Q00534 whole entry): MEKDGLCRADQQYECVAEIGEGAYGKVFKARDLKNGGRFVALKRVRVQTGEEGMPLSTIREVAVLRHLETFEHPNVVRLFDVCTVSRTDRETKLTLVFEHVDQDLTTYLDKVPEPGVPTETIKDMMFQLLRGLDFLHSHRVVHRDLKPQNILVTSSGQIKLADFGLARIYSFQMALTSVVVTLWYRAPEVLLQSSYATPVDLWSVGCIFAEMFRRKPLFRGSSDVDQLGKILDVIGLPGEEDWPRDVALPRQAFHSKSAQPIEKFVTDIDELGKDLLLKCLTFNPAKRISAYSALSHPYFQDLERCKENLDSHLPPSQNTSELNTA

CDK4 [3] = biological target: T1, CDK4; assay: palbociclib-based degrader
Target sequence in this assay (P11802 2-303): as the sequence (P11802 2-303) above

CDK4 [4] = biological target: T1, CDK4; assay: palbociclib-based degrader; remark: listed apart in the source
Target sequence in this assay (P40337 whole entry): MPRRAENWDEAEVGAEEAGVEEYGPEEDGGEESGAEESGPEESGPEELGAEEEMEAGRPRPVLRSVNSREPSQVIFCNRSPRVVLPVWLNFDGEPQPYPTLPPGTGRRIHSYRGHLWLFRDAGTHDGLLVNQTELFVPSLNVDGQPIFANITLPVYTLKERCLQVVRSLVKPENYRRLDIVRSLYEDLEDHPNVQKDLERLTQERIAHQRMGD
Target sequence in this assay (P11802 2-303): as the sequence (P11802 2-303) above

CDK6 [5] = biological target: T2, CDK6; assay: palbociclib-based degrader; remark: listed apart in the source
Target sequence in this assay (P40337 whole entry): as the sequence (P40337 whole entry) above
Target sequence in this assay (Q00534 whole entry): as the sequence (Q00534 whole entry) above

% reduced (CDK4 [1]): 84 % reduced
SMILES: CCN1CCN(Cc2ccc(Nc3ncc(F)c(-c4cc(F)c5nc(C)n(C(C)C)c5c4)n3)nc2)CC1 [abemaciclib]

palbociclib-based degrader; CDK6 degradation in MCF7 cells (immunoblot) (CDK6 [2]): ~ 10 nmol/L | palbociclib-based degrader; CDK4 degradation in MCF7 cells (immunoblot) (CDK4 [3]): ~ 10 nmol/L
SMILES: CC(=O)c1c(C)c2cnc(Nc3ccc(N4CCN(CC5CCN(c6ccc7c(c6)C(=O)N(C6CCC(=O)NC6=O)C7=O)CC5)CC4)cn3)nc2n(C2CCCC2)c1=O (centres unmarked) [BSJ-03-096]

palbociclib-based degrader; CDK4 degradation in MCF7 cells (immunoblot) (CDK4 [4]): ~ 10 nmol/L | palbociclib-based degrader; CDK6 degradation in MCF7 cells (immunoblot) (CDK6 [5]): ~ 10 nmol/L
SMILES: CC(=O)c1c(C)c2cnc(Nc3ccc(N4CCN(CCCCC(=O)N[C@H](C(=O)N5C[C@H](O)C[C@H]5C(=O)N[C@@H](C)c5ccc(-c6scnc6C)cc5)C(C)(C)C)CC4)cn3)nc2n(C2CCCC2)c1=O [BSJ-05-017]
